Laboratory results as given in ChEMBL document CHEMBL5046265, “Synthesis of Hemiprotonic Phenanthroline-Phenanthroline+ Compounds with both Antitumor and Antimicrobial Activity” (J Med Chem, 2022).
Active and inactive are the calls of the source.

How the values were obtained:
Type in all cases: functional, organism-based
Conditions in all cases: time 9.0 day
Mus musculus [1] = assay: Anti-Cryptococcal activity against Cryptococcus neoformans infected pneumonia and encephalitis C57BL/6J mouse model assessed as improvement in clinical symptoms at 8 mg/kg, iv administered once a day for 9 days
Mus musculus [2] = assay: Anti-Cryptococcal activity against Cryptococcus neoformans infected pneumonia and encephalitis C57BL/6J mouse model assessed as increase in body weight at 8 mg/kg, iv administered once a day for 9 days
Mus musculus [3] = assay: Anti-Cryptococcal activity against Cryptococcus neoformans infected pneumonia and encephalitis C57BL/6J mouse model assessed as reduction in brain edema at 8 mg/kg, iv administered once a day for 9 days and measured at 24 hrs at last post-dosage
Mus musculus [4] = assay: Anti-Cryptococcal activity against Cryptococcus neoformans infected pneumonia and encephalitis C57BL/6J mouse model assessed as reduction in pneumonia symptoms at 8 mg/kg, iv administered once a day for 9 days and measured at 24 hrs at last post-dosage

Measured: Activity

OC(Cn1cncn1)(Cn1cncn1)c1ccc(F)cc1F
active: all assays above
